“Also recorded” adds a separate entry of the source.
How the values were obtained:
hPPARγ = biological target: T1, hPPARγ (Homo sapiens, UniProt P37231); experiment: PPARγ ligand trap (LT) zebrafish GFP reporter screen/assay; assay type: in vivo; design: pLT PPARα (aa 178-468) and pLT PPAR γ (aa 188-477) lines; expressed in transfected cells; host or cells: transgenic zebrafish embryos (heat-induced ligand-trap line); settings: transgenic embryos, 48 hpf images
T1 sequence (P37231 188-477 isoform P37231-2): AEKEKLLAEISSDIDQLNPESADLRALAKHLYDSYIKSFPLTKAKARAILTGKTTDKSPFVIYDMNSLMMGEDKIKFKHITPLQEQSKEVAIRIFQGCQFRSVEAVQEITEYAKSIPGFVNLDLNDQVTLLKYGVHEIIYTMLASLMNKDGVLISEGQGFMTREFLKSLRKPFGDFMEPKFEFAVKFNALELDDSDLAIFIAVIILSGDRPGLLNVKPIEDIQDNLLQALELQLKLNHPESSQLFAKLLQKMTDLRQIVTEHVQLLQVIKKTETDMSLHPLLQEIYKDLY
Protocol: Digested DNA was adjusted with 0.1% phenol red. 4.6 nl of DNA solution was injected into the blastomeres of early one-cell stage embryos.
(§1) F0 fish were crossed with WT fish to identify germ-line transformed animals, as determined by agonist treatments and GFP expression. F1 progeny showing strong and consistent GFP responses were selected for F2 homozygote production. To avoid reporter GFP silencing of stable transgenic LT lines, homozygous fish showing strong and consistent GFP responses were selected for continued propagation of next generations.
PPARγ ligand trap zebrafish screens were performed under optimized conditions in 96-well format using the ImageXpress Velos Laser Scanning Cytometer. 1 or 2 dpf embryos were heat induced (28→37° C.) for 30 minutes, de-chorionated and then arrayed in 96-well plates (5 per well). Embryo water (0.075 g/L NaHCO3, 0.018 g/L Sea salt, 0.0084 g/L CaSO42H2O) was removed and 200 μl of fresh embryo water/well including dissolved small molecules or solvent was added.
Also included was the CoQ10 analog idebenone.

hPPARδ/β = biological target: T2, hPPARδ/β (Homo sapiens, UniProt Q03181); experiment: HEK293 cell culture luciferase reporter assay, hPPARδ/β; settings: read-out: EC50 hPPARδ/β; HEK293, GAL4-hPPARδ/β LBD, luciferase
T2 sequence (Q03181 143-441): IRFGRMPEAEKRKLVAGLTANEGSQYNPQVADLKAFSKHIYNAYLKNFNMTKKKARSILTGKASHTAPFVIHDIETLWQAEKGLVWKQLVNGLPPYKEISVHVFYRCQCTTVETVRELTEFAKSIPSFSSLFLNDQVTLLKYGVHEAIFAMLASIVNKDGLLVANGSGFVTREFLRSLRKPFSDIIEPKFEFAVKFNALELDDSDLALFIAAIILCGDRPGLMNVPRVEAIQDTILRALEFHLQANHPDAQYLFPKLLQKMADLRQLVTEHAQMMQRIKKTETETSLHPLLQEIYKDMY

[1] = biological target: T3, human PPARγ LBD (residues 206-477) (Homo sapiens, UniProt P37231); experiment: Stargazer thermostabilization assay; assay type: binding; settings: 0.2 mg/ml PPARγ LBD, heated to 80° C.
T3 construct: human PPARγ LBD (residues 206-477), expressed in pRSET; His tag (implied by Ni-NTA purification and the pRSET vector); made in house; host or cells: E. coli BL21 codon plus (pRSET)
T3 sequence (P37231 206-477 isoform P37231-2): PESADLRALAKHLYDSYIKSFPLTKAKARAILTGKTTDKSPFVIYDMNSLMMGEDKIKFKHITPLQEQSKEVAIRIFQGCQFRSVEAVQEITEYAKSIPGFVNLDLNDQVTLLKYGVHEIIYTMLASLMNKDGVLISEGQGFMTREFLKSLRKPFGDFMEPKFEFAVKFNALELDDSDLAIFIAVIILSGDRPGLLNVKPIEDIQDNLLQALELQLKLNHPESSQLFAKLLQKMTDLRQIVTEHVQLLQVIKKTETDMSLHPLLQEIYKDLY

PPARδ/β = biological target: T4, PPARδ/β (Homo sapiens, UniProt Q03181); experiment: PPARδ/β ligand trap transgenic zebrafish line; settings: in vivo
T4 construct: expressed in transfected cells; host or cells: transgenic zebrafish embryos (ligand-trap line)
T4 sequence (Q03181 211-439 limits assumed): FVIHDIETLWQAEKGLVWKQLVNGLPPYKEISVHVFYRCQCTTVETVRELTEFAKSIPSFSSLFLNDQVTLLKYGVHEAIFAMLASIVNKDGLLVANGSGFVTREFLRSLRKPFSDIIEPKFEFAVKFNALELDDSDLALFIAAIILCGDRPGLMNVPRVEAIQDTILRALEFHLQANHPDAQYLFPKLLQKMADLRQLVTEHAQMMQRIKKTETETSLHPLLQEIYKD
Protocol: To test for specificity, idebenone and CoQ10 were also tested on PPARα, and PPARδ/β receptors in vivo and in vitro. […] The same relative responses were obtained with HEK 293 cells grown in culture and transfected with PPAR expression vectors and luciferase reporters (FIG. 5).

PPARα = biological target: T5, PPARα (Homo sapiens, UniProt Q07869); experiment: PPARα ligand trap zebrafish GFP reporter assay; assay type: in vivo; design: pLT PPARα (aa 178-468) and pLT PPAR γ (aa 188-477) lines; expressed in transfected cells; host or cells: transgenic zebrafish embryos (ligand-trap line); settings: transgenic embryos, 48 hpf
T5 sequence (Q07869 178-468): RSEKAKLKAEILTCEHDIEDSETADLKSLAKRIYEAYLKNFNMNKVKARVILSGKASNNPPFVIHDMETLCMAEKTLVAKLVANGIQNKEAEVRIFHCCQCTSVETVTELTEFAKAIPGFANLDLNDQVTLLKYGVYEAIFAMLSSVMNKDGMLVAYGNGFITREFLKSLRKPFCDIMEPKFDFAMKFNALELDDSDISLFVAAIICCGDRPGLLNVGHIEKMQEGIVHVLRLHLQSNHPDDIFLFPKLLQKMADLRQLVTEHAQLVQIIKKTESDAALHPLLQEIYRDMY
Protocol: Zebrafish were maintained at 28.5° C. on a 14/10 hour light/dark cycle and staged according to hours (h) or days (d) postfertilization. To generate pLT PPARα (aa 178-468) and pLT PPAR γ (aa 188-477) lines, plasmids were pre-digested with I-SceI (0.8 μg DNA, 1 μl I-SceI (New England Biolabs) 2 μl 10×I-SceI buffer, 1 μl BSA) for 20 min at 37° C. Digested DNA was adjusted with 0.1% phenol red. 4.6 nl of DNA solution was injected into the blastomeres of early one-cell stage embryos.
as §1
PPARγ ligand trap zebrafish screens were performed under optimized conditions in 96-well format using the ImageXpress Velos Laser Scanning Cytometer. 1 or 2 dpf embryos were heat induced (28→37° C.) for 30 minutes, de-chorionated and then arrayed in 96-well plates (5 per well). […] Embryos were incubated at 28° C. for 14 h, anesthetized with Tricaine (Sigma, Cat. # A-5040) and then analyzed for GFP fluorescence using the ImageXpress Velos Laser Scanning Cytometer.

[2] = tested on: GFP-expressing leukocytes recruited in response to CuSO4; experiment: Zebrafish inflammation assay (CuSO4); assay type: in vivo; settings: 10 μM CuSO4, 55 hpf embryos
Protocol: Assay was performed as described in [47]. Fifteen dechorionated 55 hpf (hours post fertilization) embryos were transferred in each well of 6-well plates in 6 ml of embryo water. Idebenone was added at increasing concentrations (0.25, 0.75, 1.5, 3 and 5 μM). Embryos were incubated in the dark for 1 hr at 28 C, followed by a second 40 min incubation with copper sulfate (CuSO4) at a final concentration of 10 μM at 28 C in the dark. Embryos were then transferred to Eppendorf tubes and fixed in 4% paraformaldehyde in 1×PBS overnight at 4 C in the dark. Numbers of GFP+ cells were counted along the lateral line/neuromast clusters.
Previous studies have shown that PPAR agonists have anti-inflammatory properties, and can be used to treat a variety of inflammatory responses. To test if this is also true for idebenone, we used a zebrafish model of inflammation. Exposure of fish larvae to copper sulfate causes non-invasive damage to neuromast cells, which form external clusters along the lateral midline. This inflammation can be visualized via the recruitment of GFP-expressing leukocytes. As expected, this recruitment of GFP positive cells could be alleviated by addition of the known anti-inflammatory agent ibuprofen (FIG. 11).

C57Bl/6 db/db mice = experiment: db/db mouse study (NAFLD features); assay type: in vivo; settings: 10 mpk in food, 3 weeks, versus vehicle
Protocol: Db/db study: Forty male C57Bl/6 db/db mice (called B6.BKS(D)-Lepr db/J) were ordered from Jackson Laboratories (#000697) at 7 weeks of age. Mice were housed individually with free access to food (2016 Teklad Global 16% Protein Rodent Diet) and water on a 14 hour light/dark cycle (6 a.m. to 8 p.m. light). […] Food was exchanged on a daily bases. Harlan corn cob bedding was provided and was changed every week or as needed. Following a 1 week acclimation, 32 mice were chosen based on desired body weight range. Remaining mice were euthanized. Mice were randomized by body weight into four treatment groups (n=8) by body weight. Dosing occurred for 21 days. Mice were euthanized by CO2 euthanasia and livers were fixed in neutral buffered formalin (NBF) for 24 h, followed by a one day fixation in 30% Sucrose and 10% Sucrose. Oil O Red staining was performed through the Pathology Research Program at the University Health Network in Toronto [46]. [table] 100 mg of db/db livers were homogenized in RIPA buffer and protein concentration was quantified using a BCA protein assay kit (Cell signalling #7780) followed by measurement of ‘Thiobarbituric Acid Reactive Substances’ (TBARS) using a TBARS assay kit (Cayman Chemicals #10009055). Total RNA was extracted from 100 mg of db/db livers using RNA STAT-60 (Tel-Test, Inc.), treated with DNase I (RNase-free, Roche), and reverse transcribed into cDNA with random hexamers using the High Capacity Reverse transcription system (Applied Biosystems, ABI). Primers used are shown below and were validated as previously described. Real-time QPCR reactions were performed on an ABI 7900 in 384-well plates containing 12.5 ng cDNA, 150 nM of each primer, and 5 μl 2×SYBR Green PCR Master Mix (ABI) in a 10 μl total volume. Relative mRNA levels were calculated using the comparative Ct method normalized to cyclophilin mRNA.

## O=C1C=CC(=O)C=C1 [1,4-benzoquinone]
hPPARγ
  GFP reporter activation in LT-PPARγ embryos: did not induce a detectable response
hPPARγ; listed as benzoquinone
  GFP reporter activation in LT-PPARγ embryos: no reporter activation

## O=C(O)COc1ccc(SCC=C(c2ccc(Br)cc2)c2ccc(Br)cc2)cc1Cl [CAY10592]
hPPARδ/β
  EC50: 12.8 nM

## COC1=C(OC)C(=O)C(C)=CC1=O [CoQ0, Coenzyme Q0]
[1]
  Shift of thermal denaturation transition temperature: 8.5 °C
hPPARγ
  GFP reporter activation in LT-PPARγ embryos: relatively weak activity; also recorded: weak PPARγ activation

## COC1=C(OC)C(=O)C(CC=C(C)C)=C(C)C1=O [CoQ1, coenzyme Q1]
hPPARγ
  GFP reporter activation in LT-PPARγ embryos: relatively weak activity; also recorded: weak PPARγ activation

## COC1=C(OC)C(=O)C(C/C=C(\C)CCC=C(C)C)=C(C)C1=O [CoQ2, coenzyme Q2]
hPPARγ
  GFP reporter activation in LT-PPARγ embryos: activity similar to idebenone and CoQ10

## COC1=C(OC)C(=O)C(C/C=C(\C)CC/C=C(\C)CC/C=C(\C)CC/C=C(\C)CC/C=C(\C)CC/C=C(\C)CC/C=C(\C)CC/C=C(\C)CC/C=C(\C)CCC=C(C)C)=C(C)C1=O [CoQ10, coenzyme Q10]
PPARδ/β
  Response of PPARδ/β transgenic line: no response
PPARα
  GFP response of PPARα LT line: robust response; also recorded: dual agonists for PPARα and PPARγ
hPPARγ
  GFP reporter activation in LT-PPARγ embryos: dual agonists for PPARα and PPARγ

## CC(C)Cc1ccc(C(C)C(=O)O)cc1 (stereo not shown) [Ibuprofen]
[2]
  Recruitment of GFP positive leukocytes (anti-inflammatory activity): alleviated

## COC1=C(OC)C(=O)C(CCCCCCCCCC[P+](c2ccccc2)(c2ccccc2)c2ccccc2)=C(C)C1=O [MitoQ, 10-[4,5-dimethoxy-2-methyl-3,6-dioxo-1,4-cycloheexadienl-yl]decyl triphenylphosphonium methanesulfonate]
hPPARγ
  GFP reporter activation in LT-PPARγ embryos: failed to activate; also recorded: no activation

## CN(CCOc1ccc(CC2SC(=O)NC2=O)cc1)c1ccccn1 (stereo not shown) [rosiglitazone]
C57Bl/6 db/db mice
  Gain in liver weight: 8.6%

Source: US9770421B2, “Uses for idebenone and related benzoquinones in metabolic disorders and other PPAR α/γ related diseases and conditions” (INDANIO BIOSCIENCE INC., priority 2013, dated 2017)
